The source of these data is patent US20240140953A1, “INHIBITORS OF MENIN-MLL INTERACTION” (BIOMEA FUSION, INC., priority 2018, published 2024).

Where two headings read alike, the source gives them in different places.

The target of assay [1] is menin (Homo sapiens (Human), UniProt O00255). Kind of assay: Kd (Table 3A). The assay is classed as binding.
The test system of assay [2] is MV-4-11. Kind of assay: Long term proliferation assay (Table 3A), MV-4-11. The assay is classed as cell-based. The settings on record: Homo sapiens, MV4-11; MV-4-11, Day 4; read-out: MV-4-11 Day 4 IC50. Here is the method: (§1) Example 5b: IC50 determination of compounds of invention in various cell lines (Long Term Proliferation Assay)
(§2) The following 5 cell lines are used or can be used for the long term proliferation assay.
(§3) Compounds of invention are tested in the 5 suspension lines by 14-day long-term proliferation assay.
(§4) The compound is tested in 10-pt dose titration (client will determine the starting concentration and the dilution scheme) and the final DMSO concentration is kept at 0.2%.
(§5) Vehicle and media control are also included. All treatments are done in triplicate.
(§6) 3 plates are used for each cell line and 15 plates are used for the 5 cell lines.
(§7) • 1) On Day 0, in a flat bottom 96-well plate, add 100 μL of cells per well at the densities optimized. • 2) Prepare compounds in DMSO at 500× final concentration. Dilute the compounds with DMSO at the dilution. • 3) Dilute the compounds in media at 3×final concentration. Add 50 μL of compound or DMSO at 3× final concentration to each well. Final volume in each well is 150 μL, and final concentration of DMSO is 0.2%. Also include 3 untreated control wells, by adding 50 μL of media alone. 4) Incubate plates for 96 hours. • 5) Count the cells using the Acumen, with capabilities for 96-well plates. Pipette cells up and down to mix in each well, and add desired volume of cells to a new flat bottom poly-D-lysine 96-well plate. Add Calcein AM at 1 μM final concentration. Let cells sit at RT for 10 mins followed by a quick spin to get cells settled on the bottom of the wells. Incubate the plate for additional 40 mins in the incubator. Take out the plate and read by Acumen. Calculate the cell numbers taken into account the dilution factors. • 6) Split the master plate. To do this take the total viable cell count calculated using step 5). Take the average of the replicates for each dose in order to be used in splitting the cells. • 7) Use a 96 well V-bottom plate to spin down the cells to remove old media and compound to split the cells. Based on the split ratio place the proper amount of media and cells into the V-bottom plate, and spin the plate at 1100 rpm for 5 minutes. • 8) Following the spin remove the media, careful not to disturb the cellpellet. • 9) Re-suspend pellet in 100 μL fresh media, and add to a new 96-well flat bottom plate. • 10) Add fresh compound, in the same manner as Step 3). • 11) Incubate plates for 72 hours. Repeat steps 5)-10) on Day 7. • 12) Incubate plates for 96 hours. Repeat Step 5)-10) on Day 11. • 13) Incubate 72 hours and repeat step 5) to take a final count. • 14) Data Analysis
(§8) To calculate growth for days 4, 7, 11, and 14: • Calculate the split factor for day 4 to 7, day 7 to 11, and day 11-14.

Assay [3] relates to HL-60. Kind of assay: Proliferation study, CellTiterGlo, 4 days (Example 102), HL-60. The assay is classed as cell-based. The note with it: HL-60, 4 days treatment; for HL-60 % max: maximal inhibition; for IC50: Homo sapiens, 96 h, CellTiterGlo. An excerpt: (§9) The objective of the study was to evaluate the ability of representative compounds of the present invention, inhibitors of Menin/MLL interaction to inhibit cell proliferation. The proliferation inhibitory effect was investigated in two human MLL-leukemia cells selected on the bases of MLL fusion protein and listed in Table 102. HL-60 cell line was used as negative control.
(§10) ATP is present in all metabolically active cells and is considered as a marker for cell viability and proliferation. The metabolic cell activity was determined using the CellTiter-Glo kit from Promega, an ATP monitoring system based on the production of luminescence by the reaction of ATP with added UltraGlo® recombinant luciferase (Kawano et al., 2016), according to the supplier's experimental recommendations.
(§11) The described assay evaluates the ability of 4 representative compounds to inhibit the cell proliferation in the human MLL-leukemia cells plus a negative control cell line.
(§12) The assay provides potency values (IC50) for each test compound at a single time point Day 4 (T4).
(§13) Seven concentrations of the compounds (2.00E-05-6.67E-06-2.22E-06-7.41E-07-2.47E-07-8.23E-08-2.74E-08M), were assessed in duplicate in an individual test occasion in all the cell lines. MI-503 (Borkin et al., 2015) was used as reference compound and was tested at the same concentrations as the NCEs. 100% of proliferation is represented by the untreated cells (0.2% DMSO). The cell growth was monitored up to 4 days in culture.
(§14) MV4-11, MOLM-13 and HL-60 cells (see Table 2) were maintained in RPMI-1640 medium (Invitrogen, Cat. n. 618700, Batch n. 1965930) supplemented with 10% of Heat Inactivated FBS (Invitrogen, Cat n. 10500, Batch n. 08Q8078K) and 1% Pen-Strep (Invitrogen, Cat. N. 15140, Batch n. 1910859) and cultured at 37° C. in a humidified incubator with 5% CO2. All the cell lines grow in suspension and the cell density was maintained in a range of 2×10^5-1×10^6 viable cells/ml. Cells were pelleted at 130 g×5 min and conditioned medium was used to dilute the cell suspension.
(§15) Test items were dissolved in glass vials at 10 mM in DMSO with purity ≥99.9% (Sigma, D8418, batch n. SHBH4245V) and stored at −20° C. in 1.5 mL Eppendorf tubes.
(§16) Serial dilutions 1 to 3 in DMSO 100% were prepared starting from a 10 mM stock solutions to generate 7 points concentration response curve (CRC).
(§17) For each plate to test, one 0.4 μL copy plate and four 0.3 μL copy plates were then stamped into 96-well plates not treated for cell adhesion (Sarstedt—cat.no. 82.1581.001) by acoustic liquid Handling, Echo, at a concentration which was 500 fold the final assay concentration. Stamped plates were stored at −20° C. The final concentrations for the reference compound, MI-503, and the test items were: 2.00E-05, 6.67E-06, 2.22E-06, 7.41E-07, 2.47E-07, 8.23E-08 and 2.74E-08 M.
(§18) Cells were plated in 96-well flat bottom microtiter plates at cell density of 15,000 cells/ml for HL-60, 1000 cells/ml for MOLM-13 and 10,000 cell/ml for MV4-11. Cells were treated with 0.2% DMSO (Sigma, D8418, batch n. SHBH4245V) or serial dilutions of compounds (0.027 μM-20 μM) in DMSO (0.2% final concentration). Cells were incubated in a 5% CO2 incubator at 37° C. for 4 days. A CellTiterGlo viability assay (Promega) was employed. Luminescence was read by using VictorV (Perkin Elmer) multilabel plate reader using the standard protocol for luminescence in 96 well plate. The experiment was performed in duplicate.
(§19) Data were expressed as % of inhibition compared to the 0.2% DMSO negative control, and was calculated as follows: […]
(§20) CRCs were analysed by GraphPad and IC50 values were calculated by non-linear regression using 4 parameter-logistic equation. IC50 (μM) values were reported in the final data table. The curve fittings were performed leaving free all the parameters. Any constrain were reported in the results table.
On the technique in general: In ATP-based viability assays light output follows the ATP content of the culture.

In assay [4] the test system is MOLM-13. Kind of assay: Long term proliferation assay (Table 3A), MOLM-13. The assay is classed as cell-based. The settings on record: Homo sapiens, 96 h; MOLM-13, Day 4; read-out: MOLM-13 Day 4 IC50. Here is the method:
as §1, §2, §3, §4, §5, §6, §7, §8

In assay [5] the test system is MOLM-13 (MLL-AF9). Kind of assay: Proliferation study, CellTiterGlo, 4 days (Example 102), MOLM-13. The settings on record: MOLM-13, 4 days treatment; for IC50: Homo sapiens, 96 h, CellTiterGlo; for MOLM-13 (MLL-AF9) % max: maximal inhibition. The format is cell-based, human.
Source text: as §9, §10, §11, §12, §13, §14, §15, §16, §17, §18, §19, §20

Assay [6] relates to MV4-11 (MLL-AF4). Kind of assay: Proliferation study, CellTiterGlo, 4 days (Example 102), MV4-11. The format is cell-based, human. The note with it: MV4-11, 4 days treatment; for IC50: Homo sapiens, MV4-11, 96 h, CellTiterGlo; for MV4-11 (MLL-AF4) % max: maximal inhibition.
Source text: as §9, §10, §11, §12, §13, §14, §15, §16, §17, §18, §19, §20

[7] abbreviates: read-out: HL-60 pIC50 (converted).
Where [8] appears, read: read-out: MOLM-13 (MLL-AF9) IC50.
The mark [9] stands for this setting: read-out: MOLM-13 (MLL-AF9) pIC50 (converted).
The mark [10] stands for this setting: read-out: MV4-11 (MLL-AF4) IC50.
The mark [11] stands for this setting: read-out: MV4-11 (MLL-AF4) pIC50 (converted).

menin, sequence (O00255 whole entry, species assumed): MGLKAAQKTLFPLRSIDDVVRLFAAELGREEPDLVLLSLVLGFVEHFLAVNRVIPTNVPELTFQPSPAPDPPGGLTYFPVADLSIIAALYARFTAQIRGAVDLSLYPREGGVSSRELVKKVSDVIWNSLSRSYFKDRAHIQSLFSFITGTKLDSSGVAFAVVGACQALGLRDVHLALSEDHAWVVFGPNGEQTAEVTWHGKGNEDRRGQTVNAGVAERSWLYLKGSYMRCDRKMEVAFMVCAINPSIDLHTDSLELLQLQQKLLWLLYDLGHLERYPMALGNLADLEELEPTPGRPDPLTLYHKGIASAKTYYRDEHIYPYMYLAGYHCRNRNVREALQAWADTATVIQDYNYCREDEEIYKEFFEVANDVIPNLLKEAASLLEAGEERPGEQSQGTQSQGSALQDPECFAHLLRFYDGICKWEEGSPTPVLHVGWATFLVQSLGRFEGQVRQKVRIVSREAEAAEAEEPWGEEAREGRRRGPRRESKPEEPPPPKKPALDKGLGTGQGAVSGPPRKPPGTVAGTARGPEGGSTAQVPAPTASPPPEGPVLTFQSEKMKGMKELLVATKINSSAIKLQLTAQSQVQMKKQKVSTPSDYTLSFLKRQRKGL

For the compound `O=C(Cc1cc(-c2cccnc2)n[nH]1)Nc1ccc(-c2cc3c(N4CCOCC4)ncnc3[nH]2)cc1` [Compound 10, N-{4-[4-(morpholin-4-yl)-7H-pyrrolo[2,3-d]pyrimidin-6-yl]phenyl}-2-[3-(pyridin-3-yl)-1H-pyrazol-5-yl]acetamide], in assay [1], the Kd (as a rule, the constant that tells how readily two partners part at equilibrium) is 2700 ± 4000 nM. The IC50 in assay [2] was 220 nM; in assay [3] (read-out: HL-60 IC50) it was 360 nM; in assay [3] (setting [7]), 363 nM; in assay [4], 310 nM; in assay [5] (setting [8]), 310 nM; in assay [5] (setting [9]), 309 nM. In addition, the IC50 in assay [6] (setting [10]) is 220 nM; in assay [6] (setting [11]), 224 nM. In assay [3], this compound returned an HL-60 % max of 65%. In assay [5], the “MOLM-13 (MLL-AF9) % max” value worked out at 94%. Moreover, in assay [6], the “MV4-11 (MLL-AF4) % max” value is 100%.

For the compound `Cc1cn(-c2ncnc3[nH]c(-c4ccc(NC(=O)Cc5cc(-c6cccnc6)n[nH]5)cc4)cc23)cn1` [Compound 13, N-{4-[4-(4-methyl-1H-imidazol-1-yl)-7H-pyrrolo[2,3-d]pyrimidin-6-yl]phenyl}-2-[3-(pyridin-3-yl)-1H-pyrazol-5-yl]acetamide], the IC50 was 910 nM in assay [2]; 2750 nM in assay [3] (read-out: HL-60 IC50); 2750 nM in assay [3] (setting [7]); 1230 nM in assay [4]; 1230 nM in assay [5] (setting [8]); 1230 nM in assay [5] (setting [9]). Also, the IC50 in assay [6] (setting [10]) was 910 nM; in assay [6] (setting [11]), 912 nM. This compound also yielded an HL-60 % max in assay [3] of 112%. In assay [5], the “MOLM-13 (MLL-AF9) % max” value amounted to 101%. In assay [6], the “MV4-11 (MLL-AF4) % max” value stood at 105%.
